Test results taken from ChEMBL document CHEMBL1201862, “PubChem BioAssay data set” (2004).
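Where inhibition never reached the appropriate level, the endpoint shown equals the highest concentration tested. Otherwise, values were interpolated linearly from a five-concentration, 48-hour dose response in 96-well plates. Here, GI50 denotes the concentration required for 50% inhibition of growth.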 Active and inactive are the calls of the source. No stated cut-off is given here; in the data, active = GI50 up to about 1.1 µM and inactive = higher. Peptide text beside a SMILES is read from it. * marks the point of attachment. Cbz = O=C(OCc1ccccc1)*; NHNH2 = NN*

Columns and labels:
Assay in all cases: inhibition of tumour cell growth, NCI panel, 48 h
SR = tested on: SR
NCI/ADR-RES = tested on: NCI/ADR-RES
SNB-19 = tested on: SNB-19
SK-OV-3 = tested on: SK-OV-3
HOP-62 = tested on: HOP-62
MCF7 = tested on: MCF7
RPMI-8226 = tested on: RPMI-8226
Malme-3M = tested on: Malme-3M
Hs-578T = tested on: Hs-578T
MOLT-4 = tested on: MOLT-4
SF-295 = tested on: SF-295
DU-145 = tested on: DU-145
A498 = tested on: A498
HL-60 = tested on: HL-60
SNB-75 = tested on: SNB-75
HOP-92 = tested on: HOP-92
OVCAR-4 = tested on: OVCAR-4
UO-31 = tested on: UO-31
NCI-H522 = tested on: NCI-H522
BT-549 = tested on: BT-549

SMILES	GI50 (SR)	GI50 (NCI/ADR-RES)	GI50 (SNB-19)	GI50 (SK-OV-3)	GI50 (HOP-62)	GI50 (MCF7)	GI50 (RPMI-8226)	GI50 (Malme-3M)	GI50 (Hs-578T)	GI50 (MOLT-4)	GI50 (SF-295)	GI50 (DU-145)	GI50 (A498)	GI50 (HL-60)	GI50 (SNB-75)	GI50 (HOP-92)	GI50 (OVCAR-4)	GI50 (UO-31)	GI50 (NCI-H522)	GI50 (BT-549)
COc1ccc(C[C@H]2COC(=O)[C@@H]2Cc2ccccc2)cc1OC	> 100 µM (inactive)	> 100 µM (inactive)	> 100 µM (inactive)	> 100 µM (inactive)	> 100 µM (inactive)	> 100 µM (inactive)	> 100 µM (inactive)	> 100 µM (inactive)	> 100 µM (inactive)	> 100 µM (inactive)	> 100 µM (inactive)	> 100 µM (inactive)	> 100 µM (inactive)	–	–	–	–	–	–	–
CN(C)c1ccc(/C=C2\C=Cc3ccccc32)cc1	32.4 µM (inactive)	–	59.2 µM (inactive)	45.9 µM (inactive)	> 100 µM (inactive)	–	35.3 µM (inactive)	> 100 µM (inactive)	–	32.1 µM (inactive)	34.3 µM (inactive)	–	42.7 µM (inactive)	27.9 µM (inactive)	11.3 µM (inactive)	44.5 µM (inactive)	50.5 µM (inactive)	20.2 µM (inactive)	17.3 µM (inactive)	–
CCN(CC)c1nc(N(C)C)c2ccccc2n1	7.78 µM (inactive)	22.5 µM (inactive)	39.9 µM (inactive)	38.8 µM (inactive)	49.3 µM (inactive)	29.2 µM (inactive)	13.2 µM (inactive)	41.1 µM (inactive)	53.3 µM (inactive)	7.66 µM (inactive)	33.1 µM (inactive)	–	–	41.1 µM (inactive)	34.8 µM (inactive)	43.3 µM (inactive)	54.1 µM (inactive)	19.3 µM (inactive)	18.5 µM (inactive)	48.1 µM (inactive)
COC(=O)[C@@H]1C[C@H]2[C@H](c3ccccc3Br)[C@@H](OC(C)=O)[C@@H](OCc3ccccc3)ON2O1	> 100 µM (inactive)	> 100 µM (inactive)	> 100 µM (inactive)	> 100 µM (inactive)	> 100 µM (inactive)	> 100 µM (inactive)	–	–	–	45.3 µM (inactive)	> 100 µM (inactive)	> 100 µM (inactive)	–	–	> 100 µM (inactive)	–	> 100 µM (inactive)	> 100 µM (inactive)	–	> 100 µM (inactive)
COc1ccc(/C=N/NC(=O)NCCNCCO)cc1	> 100 µM (inactive)	–	–	> 100 µM (inactive)	> 100 µM (inactive)	–	> 100 µM (inactive)	> 100 µM (inactive)	–	> 100 µM (inactive)	> 100 µM (inactive)	–	> 100 µM (inactive)	> 100 µM (inactive)	> 100 µM (inactive)	> 100 µM (inactive)	> 100 µM (inactive)	> 100 µM (inactive)	> 100 µM (inactive)	–
NCCNc1cccc2ccccc12	> 100 µM (inactive)	–	> 100 µM (inactive)	> 100 µM (inactive)	> 100 µM (inactive)	–	> 100 µM (inactive)	> 100 µM (inactive)	–	–	> 100 µM (inactive)	–	> 100 µM (inactive)	> 100 µM (inactive)	–	> 100 µM (inactive)	> 100 µM (inactive)	> 100 µM (inactive)	> 100 µM (inactive)	–
N#Cc1[nH]c(=O)n(-c2ccccc2)c1N	> 10 µM (inactive)	> 10 µM (inactive)	> 10 µM (inactive)	> 10 µM (inactive)	> 10 µM (inactive)	–	> 10 µM (inactive)	> 10 µM (inactive)	> 10 µM (inactive)	> 10 µM (inactive)	0.279 µM (active)	> 10 µM (inactive)	> 10 µM (inactive)	> 10 µM (inactive)	6.52 µM (inactive)	–	> 10 µM (inactive)	> 10 µM (inactive)	–	–
N=C(NNS(=O)(=O)c1ccccc1)Oc1ccc(Br)cc1Br	> 100 µM (inactive)	–	> 100 µM (inactive)	> 100 µM (inactive)	> 100 µM (inactive)	–	57.8 µM (inactive)	> 100 µM (inactive)	–	> 100 µM (inactive)	> 100 µM (inactive)	–	> 100 µM (inactive)	92.7 µM (inactive)	94.2 µM (inactive)	44.8 µM (inactive)	> 100 µM (inactive)	> 100 µM (inactive)	67 µM (inactive)	–
OCCN(CCO)c1ncnc2c1sc(=S)n2-c1ccccc1	> 100 µM (inactive)	–	> 100 µM (inactive)	> 100 µM (inactive)	> 100 µM (inactive)	–	> 100 µM (inactive)	> 100 µM (inactive)	–	> 100 µM (inactive)	> 100 µM (inactive)	–	46 µM (inactive)	> 100 µM (inactive)	> 100 µM (inactive)	> 100 µM (inactive)	> 100 µM (inactive)	> 100 µM (inactive)	> 100 µM (inactive)	–
COc1ccc2c(c1)CCCN1CCc3cc(OC)c(OC)cc3C21 (stereo not given)	> 100 µM (inactive)	21.8 µM (inactive)	> 100 µM (inactive)	> 100 µM (inactive)	> 100 µM (inactive)	> 100 µM (inactive)	71.4 µM (inactive)	> 100 µM (inactive)	–	50.5 µM (inactive)	46.5 µM (inactive)	> 100 µM (inactive)	–	41.1 µM (inactive)	> 100 µM (inactive)	–	–	25.5 µM (inactive)	–	4.09 µM (inactive)
CC1CC/C(=C\c2ccc(F)cc2)C2=C1C(c1ccc(F)cc1)n1c(s/c(=C/c3cccc(Br)c3)c1=O)=N2 (stereo not given)	> 100 µM (inactive)	–	> 100 µM (inactive)	> 100 µM (inactive)	> 100 µM (inactive)	> 100 µM (inactive)	> 100 µM (inactive)	–	> 100 µM (inactive)	> 100 µM (inactive)	–	> 100 µM (inactive)	> 100 µM (inactive)	> 100 µM (inactive)	> 100 µM (inactive)	> 100 µM (inactive)	–	–	–	–
O=[N+]([O-])c1ccc(-c2nn3c(C45CC6CC(CC(C6)C4)C5)nnc3s2)c(Cl)c1	> 100 µM (inactive)	> 100 µM (inactive)	> 100 µM (inactive)	> 100 µM (inactive)	> 100 µM (inactive)	–	> 100 µM (inactive)	> 100 µM (inactive)	> 100 µM (inactive)	> 100 µM (inactive)	> 100 µM (inactive)	> 100 µM (inactive)	> 100 µM (inactive)	> 100 µM (inactive)	> 100 µM (inactive)	> 100 µM (inactive)	> 100 µM (inactive)	> 100 µM (inactive)	> 100 µM (inactive)	–
COc1cc2c(cc1OC)C(Cc1ccc(Oc3cc(CC4c5cc(OC)c(OC)cc5CCN4C)ccc3O)cc1)N(C)CC2 (stereo not given)	1.79 µM (inactive)	–	40.6 µM (inactive)	35.3 µM (inactive)	24.3 µM (inactive)	–	16.9 µM (inactive)	19.5 µM (inactive)	–	14.2 µM (inactive)	26.4 µM (inactive)	–	22 µM (inactive)	13.4 µM (inactive)	14.8 µM (inactive)	24.3 µM (inactive)	20.5 µM (inactive)	14.5 µM (inactive)	12 µM (inactive)	–
COc1cc(C2C(Cl)C(=O)N2c2c(C)n(C)n(-c3ccccc3)c2=O)ccc1O (stereo not given)	12 µM (inactive)	30.3 µM (inactive)	–	29.6 µM (inactive)	23.7 µM (inactive)	13.2 µM (inactive)	18.1 µM (inactive)	28.3 µM (inactive)	–	15.1 µM (inactive)	22.2 µM (inactive)	29.7 µM (inactive)	–	23.3 µM (inactive)	–	21.3 µM (inactive)	16.5 µM (inactive)	16.9 µM (inactive)	13.6 µM (inactive)	20.1 µM (inactive)
NN/C(=N\S(=O)(=O)c1ccc(-c2ccccn2)s1)Nc1ccc(Cl)cc1	–	> 100 µM (inactive)	42.1 µM (inactive)	88.9 µM (inactive)	38.9 µM (inactive)	> 100 µM (inactive)	> 100 µM (inactive)	–	–	32.7 µM (inactive)	52.5 µM (inactive)	> 100 µM (inactive)	> 100 µM (inactive)	> 100 µM (inactive)	25.6 µM (inactive)	68.5 µM (inactive)	85.9 µM (inactive)	43.9 µM (inactive)	0.265 µM (active)	> 100 µM (inactive)
COc1cc(C2c3cc4c(cc3[C@@H](Nc3cccc(O)c3)C3COC(=O)[C@H]23)OCO4)cc(OC)c1O (stereo not given in full)	0.191 µM (active)	1.4 µM (inactive)	3.7 µM (inactive)	4.61 µM (inactive)	0.817 µM (active)	0.46 µM (active)	0.948 µM (active)	2.3 µM (inactive)	–	0.0359 µM (active)	1.09 µM (active)	0.197 µM (active)	1.62 µM (inactive)	0.445 µM (active)	2.38 µM (inactive)	1.32 µM (inactive)	12.2 µM (inactive)	1.57 µM (inactive)	1.32 µM (inactive)	1.91 µM (inactive)
COC(=O)CC(NC(=O)OCc1ccccc1)C(=O)NC(CC(=O)OC)C(=O)NC(CC(=O)OC)C(=O)NC(CC(=O)OC)C(=O)NC(CC(=O)OC)C(=O)NC(CC(=O)OC)C(=O)NN (stereo not given) (Cbz-D(OMe)D(OMe)D(OMe)D(OMe)D(OMe)D(OMe)-NHNH2; configuration not given here)	> 100 µM (inactive)	–	> 100 µM (inactive)	> 100 µM (inactive)	> 100 µM (inactive)	> 100 µM (inactive)	> 100 µM (inactive)	–	> 100 µM (inactive)	> 100 µM (inactive)	> 100 µM (inactive)	–	–	> 100 µM (inactive)	> 100 µM (inactive)	> 100 µM (inactive)	> 100 µM (inactive)	> 100 µM (inactive)	–	> 100 µM (inactive)
